For 20 molecules, IC50 results are on record in US20260167623A1 (NIKANG THERAPEUTICS, INC., priority 2022, published 2026).

SMILES strings stand for the structures.

This assay concerns the target T1, CDK2 (Homo sapiens, UniProt P24941).
T1 construct: High-Throughput Measurement of Cellular Endogenous CDK2; endogenous in cells; host or cells: OVCAR3
In words: Inhibition of CDK2: phospho-Rb (S807/811) HTRF measurement in OVCAR3 cells, 24 h. In kind it is cell-based. The following applies: 24 h compound treatment, read-out: pRB_OVCAR3_24h. A digest of the protocol:
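OVCAR3 cells, seeded overnight, were exposed to compounds at 0.3 to 10,000 nM for 24 h, then lysed. Rb S807/811 phosphorylation read by HTRF (665/620 nm ratio) after 4 h detection at room temperature; data normalized to DMSO and IC50 from four-parameter logistic fit.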
In the case of `Cn1nc(N2CCC(=O)NC2=O)c2ccc(C3CN(Cc4cccc(S(=O)(=O)N5CCC(Nc6ncc(OC(F)F)cn6)CC5)c4)C3)cc21` [Example 81, 1-(6-(1-(3-((4-((5-(difluoromethoxy)-pyrimidin-2-yl)amino)piperidin-1-yl)sulfonyl)benzyl)azetidin-3-yl)-1-methyl-1H-indazol-3-yl)dihydropyrimidine-2,4(1H,3H)-dione], the IC50 fell in the range of 500 to 2500 nM.

Consider `Cn1nc(N2CCC(=O)NC2=O)c2ccc(C3CCN(Cc4cccc(S(=O)(=O)N5CCC(Nc6ncc(F)cn6)CC5)c4)CC3)cc21` [Example 26, 1-(6-(1-(3-((4-((5-fluoropyrimidin-2-yl)amino)piperidin-1-yl)sulfonyl)benzyl)-piperidin-4-yl)-1-methyl-1H-indazol-3-yl)dihydropyrimidine-2,4(1H,3H)-dione], for which the IC50 is > 2500 nM.

In the case of `O=C1CCC(n2c(=O)n(CC3CCN(CC4CCN(c5cccc(S(=O)(=O)N6CCC(Nc7ncc(C(F)(F)F)cn7)CC6)c5)CC4)CC3)c3ccccc32)C(=O)N1` (centres unmarked) [Example 186, 3-(2-oxo-3-((1-((1-(3-((4-((5-(trifluoromethyl)pyrimidin-2-yl)amino)piperidin-1-yl)sulfonyl)phenyl)piperidin-4-yl)methyl)piperidin-4-yl)methyl)-2,3-dihydro-1H-benzo[d]imidazol-1-yl)piperidine-2,6-dione], the IC50 is 1 to 100 nM.

Regarding `Cn1nc(N2CCC(=O)NC2=O)c2ncc(C3CCN(CC4CCN(c5cccc(S(=O)(=O)N6CCC(Nc7ncc(C(F)(F)F)cn7)CC6)c5)CC4)CC3)cc21` [Example 212, 1-(1-methyl-6-(1-((1-(3-((4-((5-(trifluoromethyl)pyrimidin-2-yl)amino)piperidin-1-yl)sulfonyl)phenyl)piperidin-4-yl)methyl)piperidin-4-yl)-1H-pyrazolo[4,3-b]pyridin-3-yl)dihydropyrimidine-2,4(1H,3H)-dione], the IC50 was in the range of 500 to 2500 nM.

As for `Cn1nc(N2CCC(=O)NC2=O)c2ccc(N3CCC(NCc4cccc(S(=O)(=O)N5CCC(Nc6ncc(C(F)(F)F)cn6)CC5)c4)CC3)cc21` [Example 85, 1-(1-methyl-6-(4-((3-((4-((5-(trifluoro-methyl)pyrimidin-2-yl)amino)piperidin-1-yl)sulfonyl)benzyl)amino)piperidin-1-yl)-1H-indazol-3-yl)dihydropyrimidine-2,4(1H,3H)-dione], the IC50 lay in the range of 500 to 2500 nM.

On to `CN(C)c1cnc(NC2CCN(S(=O)(=O)c3cccc(CN4CCC(c5ccc6c(N7CCC(=O)NC7=O)nn(C)c6c5)CC4)c3)CC2)nc1` [Example 70, 1-(6-(1-(3-((4-((5-(dimethylamino)-pyrimidin-2-yl)amino)piperidin-1-yl)-sulfonyl)benzyl)piperidin-4-yl)-1-methyl-1H-indazol-3-yl)dihydropyrimidine-2,4(1H,3H)-dione], for which the IC50 was > 2500 nM.

In the case of `Cn1nc(N2CCC(=O)NC2=O)c2ccc(C3CCN(CC4CCC(c5cccc(S(=O)(=O)N6CCC(Nc7ncc(Cl)cn7)CC6)c5)CC4)CC3)cc21` (centres unmarked) [Example 156, 1-(6-(1-((4-(3-((4-((5-chloropyrimidin-2-yl)amino)piperidin-1-yl)sulfonyl)phenyl)cyclohexyl)methyl)piperidin-4-yl)-1-methyl-1H-indazol-3-yl)dihydropyrimidine-2,4(1H,3H)-dione 2,2,2-trifluoroacetate], the IC50 lay in the range of 100 to 500 nM.

As for `Cn1nc(N2CCC(=O)NC2=O)c2ccc(N3CCN(CC4CCN(c5cccc(S(=O)(=O)N6CCC(Nc7ncc(Cl)cn7)CC6)c5)CC4)CC3(C)C)cc21` [Example 159, 1-(6-(4-((1-(3-((4-((5-chloropyrimidin-2-yl)amino)piperidin-1-yl)sulfonyl)phenyl)piperidin-4-yl)methyl)-2,2-dimethylpiperazin-1-yl)-1-methyl-1H-indazol-3-yl)dihydropyrimidine-2,4(1H,3H)-dione], the IC50 lay within 100 to 500 nM.

`Cn1nc(N2CCC(=O)NC2=O)c2ccc(N3CCC(CN4CCN(c5cccc(S(=O)(=O)N6CCC(Nc7ncc(Cl)cn7)CC6)c5)CC4)CC3)cc21` [Example 138, 1-(6-(4-((4-(3-((4-((5-chloropyrimidin-2-yl)amino)piperidin-1-yl)sulfonyl)phenyl)-piperazin-1-yl)methyl)piperidin-1-yl)-1-methyl-1H-indazol-3-yl)dihydropyrimidine-2,4(1H,3H)-dione]: the IC50 is > 2500 nM.

Take `Cn1nc(N2CCC(=O)NC2=O)c2ccc(C3CCN(C(c4cccc(S(=O)(=O)N5CCC(Nc6ncc(Cl)cn6)CC5)c4)C(F)F)CC3)cc21` (centres unmarked) [Example 30, 1-(6-(1-(1-(3-((4-((5-chloropyrimidin-2-yl)amino)piperidin-1-yl)sulfonyl)phenyl)-2,2-difluoroethyl)piperidin-4-yl)-1-methyl-1H-indazol-3-yl)dihydropyrimidine-2,4(1H,3H)-dione]: the IC50 lay in the range of 500 to 2500 nM.

With `Cn1nc(N2CCC(=O)NC2=O)c2ccc(C3CCN(Cc4cccc(S(=O)(=O)N5CCC(Nc6ncc(OC(F)F)cn6)CC5)c4)CC3(F)F)cc21` (centres unmarked) [Example 75, 1-(6-(1-(3-((4-((5-(difluoromethoxy)-pyrimidin-2-yl)amino)piperidin-1-yl)sulfonyl)benzyl)-3,3-difluoropiperidin-4-yl)-1-methyl-1H-indazol-3-yl)dihydropyrimidine-2,4(1H,3H)-dione], the IC50 fell in the range of 100 to 500 nM.

Take `Cn1nc(N2CCC(=O)NC2=O)c2ccc(C3CCN(Cc4cccc(S(=O)(=O)[C@H]5CC[C@H](Nc6ncc(Cl)cn6)CC5)c4)CC3)cc21` [Example 59, 1-(6-(1-(3-(((1r,4r)-4-((5-chloropyrimidin-2-yl)amino)cyclohexyl)sulfonyl)benzyl)piperidin-4-yl)-1-methyl-1H-indazol-3-yl)dihydropyrimidine-2,4(1H,3H)-dione]: the IC50 is > 2500 nM.

Turning to `Cn1nc(N2CCC(=O)NC2=O)c2ccc(CN3CCN(c4cccc(S(=O)(=O)N5CCC(Nc6ncc(C(F)(F)F)cn6)CC5)c4)CC3)cc21` [Example 179, 1-(1-methyl-6-((4-(3-((4-((5-(trifluoromethyl)pyrimidin-2-yl)amino)piperidin-1-yl)sulfonyl)phenyl)piperazin-1-yl)methyl)-1H-indazol-3-yl)dihydropyrimidine-2,4(1H,3H)-dione], the IC50 is 500 to 2500 nM.

With `O=C1CCN(c2ccc(N3CCN(Cc4cccc(S(=O)(=O)N5CCC(Nc6ncc(C(F)(F)F)cn6)CC5)c4)CC3)cc2)C(=O)N1` [Example 82, 1-(4-(4-(3-((4-((5-(trifluoromethyl)-pyrimidin-2-yl)amino)piperidin-1-yl)sulfonyl)benzyl)piperazin-1-yl)phenyl) dihydropyrimidine-2,4(1H,3H)-dione], the IC50 was in the range of 500 to 2500 nM.

Regarding `Cn1nc(N2CCC(=O)NC2=O)c2ccc(C3CCN(CC4CCN(c5cccc(S(=O)(=O)N6CCC(Nc7ncc(OC(F)F)cn7)CC6)c5)CC4)CC3)cc21` [Example 112, 1-(6-(1-((1-(3-((4-((5-(difluoromethoxy)-pyrimidin-2-yl)amino)piperidin-1-yl)sulfonyl)phenyl)piperidin-4-yl)methyl)piperidin-4-yl)-1-methyl-1H-indazol-3-yl)dihydropyrimidine-2,4(1H,3H)-dione], the IC50 was in the range of 1 to 100 nM.

As to `N#Cc1ccc(S(=O)(=O)N2CCC(Nc3ncc(Cl)cn3)CC2)cc1N1CCC(CN2CCN(c3cc4c(cc3F)C(=O)N(C3CCC(=O)NC3=O)C4=O)CC2)CC1` (centres unmarked) [Example 185, 4-((4-((5-chloropyrimidin-2-yl)amino)piperidin-1-yl)sulfonyl)-2-(4-((4-(2-(2,6-dioxopiperidin-3-yl)-6-fluoro-1,3-dioxoisoindolin-5-yl)piperazin-1-yl)methyl)piperidin-1-yl)benzonitrile], the IC50 was in the range of 500 to 2500 nM.

`Cn1nc(N2CCC(=O)NC2=O)c2ccc(C#CCN3CCN(c4cccc(S(=O)(=O)N5CCC(Nc6ncc(Cl)cn6)CC5)c4)CC3)cc21` [Example 231, 1-(6-(3-(4-(3-((4-((5-chloropyrimidin-2-yl)amino)piperidin-1-yl)sulfonyl)phenyl)piperazin-1-yl)prop-1-yn-1-yl)-1-methyl-1H-indazol-3-yl)dihydropyrimidine-2,4(1H,3H)-dione]: the IC50 is 500 to 2500 nM.

Consider `Cn1nc(N2CCC(=O)NC2=O)c2cccc(C3CCN(CC4CCN(c5cccc(S(=O)(=O)N6CCC(Nc7ncc(C(F)(F)F)cn7)CC6)c5)CC4)CC3)c21` [Example 145, 1-(1-methyl-7-(1-((1-(3-((4-((5-(trifluoro-methyl)pyrimidin-2-yl)amino)piperidin-1-yl)sulfonyl)phenyl)piperidin-4-yl)methyl)-piperidin-4-yl)-1H-indazol-3-yl)dihydropyrimidine-2,4(1H,3H)-dione], for which the IC50 lay within 100 to 500 nM.

Regarding `Cn1cc(-c2cnc(NC3CCN(S(=O)(=O)c4cccc(N5CCC(CN6CCC(c7ccc8c(N9CCC(=O)NC9=O)nn(C)c8c7)CC6)CC5)c4)CC3)nc2)cn1` [Example 155, 1-(1-methyl-6-(1-((1-(3-((4-((5-(1-methyl-1H-pyrazol-4-yl)pyrimidin-2-yl)amino)piperidin-1-yl)sulfonyl)phenyl)piperidin-4-yl)methyl)piperidin-4-yl)-1H-indazol-3-yl)dihydropyrimidine-2,4(1H,3H)-dione], the IC50 is > 2500 nM.

For the molecule `Cn1nc(N2CCC(=O)NC2=O)c2ccc(N3CC4CCC(C3)N4CC3CCN(c4cccc(S(=O)(=O)N5CCC(Nc6ncc(Cl)cn6)CC5)c4)CC3)cc21` [Example 114, 1-(6-(8-((1-(3-((4-((5-chloropyrimidin-2-yl)amino)piperidin-1-yl)sulfonyl)phenyl)-piperidin-4-yl)methyl)-3,8-diaza-bicyclo[3.2.1]octan-3-yl)-1-methyl-1H-indazol-3-yl)dihydropyrimidine-2,4(1H,3H)-dione], the IC50 is 100 to 500 nM.
